± gives the standard deviation of the averaged measurements.
Assays:
Conditions in all cases: 72 h
Caco-2 [1] = assay: cell viability relative to DMSO; higher = less toxic
Calu-3 [2] = assay: as above
HepG2 [3] = assay: as above
U2OS [4] = assay: as above
Vero E6 [5] = assay: as above
Caco-2 [6] = assay: relative viability EC50 (midpoint between 100% and the lowest measured viability); higher = less toxic
Calu-3 [7] = assay: as above
HepG2 [8] = assay: as above
U2OS [9] = assay: as above
Vero E6 [10] = assay: as above
Caco-2 [11] = assay: drug sensitivity score (DSS) for viability; higher = more toxic; extreme values may be limits of the assay
Calu-3 [12] = assay: as above
HepG2 [13] = assay: as above
U2OS [14] = assay: as above
Vero E6 [15] = assay: as above

Row | SMILES | cell viability (Caco-2 [1]; 1 nM) [%] | cell viability (Caco-2 [1]; 10 nM) [%] | cell viability (Caco-2 [1]; 100 nM) [%] | cell viability (Caco-2 [1]; 1000 nM) [%] | cell viability (Caco-2 [1]; 10000 nM) [%] | cell viability (Calu-3 [2]; 1 nM) [%] | cell viability (Calu-3 [2]; 10 nM) [%] | cell viability (Calu-3 [2]; 100 nM) [%] | cell viability (Calu-3 [2]; 1000 nM) [%] | cell viability (Calu-3 [2]; 10000 nM) [%] | cell viability (HepG2 [3]; 1 nM) [%] | cell viability (HepG2 [3]; 10 nM) [%] | cell viability (HepG2 [3]; 100 nM) [%] | cell viability (HepG2 [3]; 1000 nM) [%] | cell viability (HepG2 [3]; 10000 nM) [%] | cell viability (U2OS [4]; 1 nM) [%] | cell viability (U2OS [4]; 10 nM) [%] | cell viability (U2OS [4]; 100 nM) [%] | cell viability (U2OS [4]; 1000 nM) [%] | cell viability (U2OS [4]; 10000 nM) [%] | cell viability (Vero E6 [5]; 1 nM) [%] | cell viability (Vero E6 [5]; 10 nM) [%] | cell viability (Vero E6 [5]; 100 nM) [%] | cell viability (Vero E6 [5]; 1000 nM) [%] | cell viability (Vero E6 [5]; 10000 nM) [%] | relative viability EC50 (Caco-2 [6]) [µM] | relative viability EC50 (Calu-3 [7]) [µM] | relative viability EC50 (HepG2 [8]) [µM] | relative viability EC50 (U2OS [9]) [µM] | relative viability EC50 (Vero E6 [10]) [µM] | drug sensitivity score (Caco-2 [11]) | drug sensitivity score (Calu-3 [12]) | drug sensitivity score (HepG2 [13]) | drug sensitivity score (U2OS [14]) | drug sensitivity score (Vero E6 [15])
1 | CN(C)c1cccc(Oc2cnc(Nc3cccc(O)c3)nc2)c1 [SEN-1269] | 96.5 | 102 | 102 | 96.3 | 82.3 | 94.5 | 99.7 | 100 | 95.4 | 102 | 102 | 104 | 93.8 | 93 | 99.9 | 101 | 102 | 95.5 | 99.5 | 94.8 | 98 | 94.4 | 95.9 | 89.2 | 93.4 | > 10 | > 10 | > 10 | > 10 | > 10 | 0.9 | 0 | 0 | 0 | 0
2 | FC(F)(F)c1cccc(-c2noc(-c3cc(-c4ccccc4)c(C(F)(F)F)s3)n2)c1 [SEW-2871] | 103 | 104 | 102 | 99.8 | 108 | 93.2 | 91.1 | 99.9 | 93.3 | 98.5 | 102 | 103 | 93.9 | 100 | 99 | 93.7 | 99.1 | 96 | 102 | 102 | 101 | 98 | 97.4 | 90.7 | 110 | > 10 | > 10 | > 10 | > 10 | > 10 | 0 | 0 | 0 | 0 | 0
3 | Cn1cc(-c2ccc3nnc(Sc4ccc5ncccc5c4)n3n2)cn1 [SGX523] | 92.5 | 98.6 | 103 | 107 | 100 | 89 | 97.2 | 102 | 96.5 | 100 | 96.2 | 95.2 | 92.5 | 97.2 | 103 | 99 | 98.6 | 101 | 93.4 | 103 | 94.8 | 101 | 94.4 | 98 | 107 | > 10 | > 10 | > 10 | > 10 | > 10 | 0 | 0 | 0 | 0 | 0
4 | CCCNC(=O)N1N=C(c2ccc(N)cc2)c2cc3c(cc2C1C)OCO3 (stereo not given) [SYM-2206] | 96.6 | 102 | 95.5 | 94.2 | 100 | 86.9 | 101 | 109 | 111 | 119 | 91.9 | 94.8 | 95.2 | 93 | 93.5 | 95.1 | 101 | 97.4 | 103 | 101 | 98.5 | 92.5 | 97.9 | 88.9 | 98.6 | > 10 | > 10 | > 10 | > 10 | > 10 | 0 | 0 | 0 | 0 | 0
5 | CN[C@@H]1[C@@H](O)[C@@H](O[C@@H]2[C@@H](O)[C@H](O[C@H]3OC(CN)=CC[C@H]3N)[C@@H](N)C[C@H]2N)OC[C@]1(C)O [Sisomicin (sulfate)] | 100 ± 6.2 | 100 ± 4.2 | 103 ± 2.8 | 100 ± 0.78 | 94.15 ± 0.49 | 105 ± 7.6 | 101.8 ± 0.35 | 97.1 ± 0.28 | 101 ± 4.5 | 105 ± 5.2 | 108 ± 8.4 | 101 ± 4.7 | 107 ± 7.3 | 96.8 ± 1.3 | 98.1 ± 4.1 | 101 ± 0.64 | 102 ± 0.49 | 99.7 ± 0.99 | 105 ± 3.1 | 99.4 ± 0.71 | 107 ± 8.3 | 107 ± 1.6 | 105 ± 4.5 | 98.5 ± 1.6 | 104 ± 2.9 | > 10 | > 10 | > 10 | > 10 | > 10 | 0 | 0 | 0 | 0 | 0
6 | CN(C)C/C=C/C(=O)Nc1cccc(C(=O)Nc2cccc(Nc3ncc(Cl)c(-c4c[nH]c5ccccc45)n3)c2)c1 [THZ2] | 97.8 | 99.9 | 98.4 | 80.9 | 25.6 | 103 | 104 | 83.1 | 33.5 | 42.9 | 114 | 89.4 | 44.7 | 3.5 | 2.7 | 97.8 | 102 | 96.6 | 10.2 | 8.3 | 104 | 103 | 103 | 95 | 6.5 | 1.53 | 0.154 | 0.0771 | 0.303 | 2.75 | 7.1 | 14.9 | 24.2 | 16.8 | 5.9
7 | CC(C)(O)c1ccn2c(-c3ccc(F)c(-c4ccc(F)cc4C#N)c3)cnc2c1F [TP-003] | 98.7 | 96 | 93.6 | 103 | 95.6 | 106 | 91.9 | 102 | 114 | 92.7 | 98.3 | 96.4 | 97.9 | 103 | 102 | 96.7 | 94.1 | 104 | 96.5 | 99.4 | 97.6 | 99.1 | 92.3 | 103 | 103 | > 10 | > 10 | > 10 | > 10 | > 10 | 0 | 0 | 0 | 0 | 0
8 | CN1CCN(Cc2ccc(Nc3ncc(Cl)c(Nc4ccccc4S(=O)(=O)N(C)C)n3)cc2)CC1 [TP-0903] | 109 | 96.3 | 102 | 85.9 | 33.4 | 92.3 | 92 | 89 | 110 | 80.2 | 107 | 109 | 99.8 | 50.4 | 7 | 95 | 98.2 | 95.1 | 89.1 | 21 | 112 | 105 | 103 | 75.8 | 7.4 | 1.69 | > 10 | 0.948 | 2.06 | 1.51 | 5.9 | 0.3 | 11.2 | 6.2 | 8.8
9 | Cc1ccc(-c2ccc(F)cc2COc2ccc(CCC(=O)O)cc2)cc1 [TUG-891] | 93.8 | 91.7 | 87.9 | 98.5 | 92.4 | 93.6 | 97.7 | 105 | 96.6 | 105 | 109 | 96.7 | 100 | 117 | 110 | 97.8 | 101 | 94.2 | 93.6 | 99.2 | 101 | 102 | 100 | 97.9 | 99 | > 10 | > 10 | > 10 | > 10 | > 10 | 0 | 0 | 0 | 0 | 0
10 | C[C@]12C=CC(=O)C=C1CC[C@@H]1[C@@H]2CC[C@]2(C)OC(=O)CC[C@@H]12 [Testolactone] | 94 | 97.1 | 87.1 | 91.1 | 93.8 | 98.5 | 97.3 | 101 | 99.5 | 105 | 66.7 | 103 | 93.1 | 94.1 | 111 | 95.8 | 98.2 | 95.4 | 102 | 91.8 | 98.5 | 91.3 | 94.9 | 88.1 | 96.8 | > 10 | > 10 | > 10 | > 10 | > 10 | 0 | 0 | 0 | 0 | 0
11 | CCCCCCCCCCC(=O)O[C@H]1CC[C@H]2[C@@H]3CCC4=CC(=O)CC[C@]4(C)[C@H]3CC[C@]12C [Testosterone (undecanoate)] | 87.3 | 92.9 | 104 | 96.7 | 91.5 | 103 | 94.7 | 96.5 | 94.4 | 100 | 95.6 | 106 | 92.4 | 99.4 | 96.9 | 99.8 | 94.4 | 102 | 99.4 | 97.7 | 98.5 | 97.2 | 99.2 | 95.5 | 94.9 | > 10 | > 10 | > 10 | > 10 | > 10 | 0 | 0 | 0 | 0 | 0
12 | O=C(c1cccc(Br)c1)N1CCC(N2CCCC2)CC1 [UNC926] | 99.8 | 98.4 | 102 | 100 | 92.8 | 93.7 | 90.2 | 113 | 92.6 | 96.4 | 100 | 104 | 90.4 | 104 | 108 | 102 | 97.2 | 99.5 | 102 | 101 | 90.9 | 101 | 91.5 | 96.4 | 107 | > 10 | > 10 | > 10 | > 10 | > 10 | 0 | 0 | 0 | 0 | 0
13 | O=C(c1ccc(C(=O)N2CCC(N3CCCC3)CC2)c(Nc2ccccc2)c1)N1CCC(N2CCCC2)CC1 [UNC1215] | 108 | 97.7 | 100 | 110 | 94.1 | 105 | 111 | 106 | 93.4 | 101 | 98.6 | 99.2 | 96.7 | 98 | 103 | 104 | 102 | 100 | 97.9 | 105 | 94 | 95.9 | 101 | 99.6 | 99.9 | > 10 | > 10 | > 10 | > 10 | > 10 | 0 | 0 | 0 | 0 | 0
14 | NC(=O)c1ccc(N(C(N)=O)c2c(F)cccc2F)nc1-c1ccc(F)cc1F [VX-702] | 102 | 89.9 | 103 | 85.6 | 88.4 | 101 | 94.4 | 94 | 95.4 | 87.8 | 101 | 109 | 91.9 | 110 | 108 | 97.8 | 96.2 | 96.8 | 92.6 | 94.4 | 92.7 | 105 | 88.5 | 89.1 | 89.1 | > 10 | > 10 | > 10 | > 10 | > 10 | 1.1 | 0 | 0 | 0 | 0.7

Reference: the supplement of paper PMC13380429
